Values after ≈ are worked out from the molar mass of the structure shown.
Columns and labels:
colon and kidney cells = settings: Comet assay, Müller et al. 1996; cited from earlier work
[1] = tested on: IL-1 β cytokine production by human normal and osteoarthritic (OA) chondrocytes; assay: In vitro IL-1β inhibition in LPS-stimulated human chondrocytes (ELISA); assay type: cell-based
From the text: The activity of the compound of example 1, and of rhein in inhibiting the lipopolysaccharide (LPS) stimulated production of IL-1 β cytokine by human normal and osteoarthritic (OA) chondrocytes was studied.
Human cartilage was obtained during orthopaedic surgery for total hip prosthesis due to traumatic fracture in normal subjects or OA patients. Patients with OA were selected on the basis of the following criteria (1) bi-lateral OA, (2) diagnoses of moderate OA (grade I-III, Kellgren-Laurence), supported by radiology and pathology.
A suspension of isolated chondrocytes was prepared from cartilage specimens obtained from four OA patient and nine normal subjects. Specimens were obtained and maintained under aseptic conditions. The cartilage was cut into small fragments and incubated with 1 mg/ml clostridial collagenase in carbonate/bicarbonate buffer for 48 hours at 37° C. Once separated from the cartilage matrix, chondrocytes were centrifuged at 1500 RPM for five minutes. The separated chondrocytes, suspended in culture medium (DMEM supplemented with 10% SCF) were used for the experiment. Cell viability was evaluated by Trypan blue exclusion.
In vitro stimulation of chondrocytes with bacterial endotoxin (LPS) for the production of IL-1 β was carried out as follows: […]

Solubility in water = assay type: physicochemical; settings: for solubility of test solutions for chondrocyte culture: rhein needed five minutes sonication; for solubility in water (in words): water / aqueous solution

| Structure (SMILES) | solubility of test solutions for chondrocyte culture (Solubility in water) | solubility in water (in words) (Solubility in water) | other results |
| --- | --- | --- | --- |
| O=C1c2cccc(O)c2C(=O)c2c(O)cc(CO)cc21 [Aloe-emodin] | – | – | clastogenic effect (colon and kidney cells): clastogenic effect in colon and kidney cells |
| O=C(O)c1cc(O)c2c(c1)C(=O)c1ccc(S(=O)(=O)O)c(O)c1C2=O [Example 1, 6-sulfo-4,5-dihydroxy-9,10-dioxo-2-anthracene carboxylic acid] | good solubility | – | IL-1β inhibition activity compared with rhein (FIG. 3) ([1]; LPS-stimulated normal and OA chondrocytes, 48 hours, ELISA): significantly increased IL-1β inhibition activity compared with rhein; inhibition of IL-1β production (FIG. 4) ([1]; LPS-stimulated normal chondrocytes, dose-dependent): significant inhibition of IL-1β production; solubility (Solubility in water; water): 1200 µg/mL (≈ 3.29 mM) |
| CC(=O)Oc1cccc2c1C(=O)c1c(OC(C)=O)cc(C(=O)O)cc1C2=O [diacerein] | – | practically insoluble in water | – |
| O=C(O)c1cc(O)c2c(c1)C(=O)c1cccc(O)c1C2=O [rhein, 4,5-dihydroxy-9,10-dioxo-2-anthracene carboxylic acid] | solubility problems | practically insoluble in water | – |

Reference: US8754128B2, “Dioxoanthracene sulphonate derivatives” (Laboratoire Medidom SA, priority 2007, dated 2014)
